Measured values reported in PubChem BioAssay AID1745844 (Carcinogenic Potency Database (CPDB), 2022).
Values joined by “and” are separate entries in the source; they are usually repeats but may differ in a detail not shown here. Equal values may be shown once. Active and inactive are the calls of the source. How the calls were made is not given here.

Test system: rodent lifetime carcinogenesis bioassay, tumor incidence TD50
Assay: chronic cancer bioassays in animals – CPDB, compiled studies (AID 1745844)
Details: in feed

O=c1c(O)c(-c2ccc(O)c(O)c2)oc2cc(O)cc(O)c12
75700 mg/kg/day: TD50 (rat, strain Fischer 344, females, site: liver, lesion: hepatocellular adenoma + hepatocellular carcinoma + neoplastic nodule, dosed 103 weeks, study length 103 weeks)
inactive: carcinogen call (hamster, strain Syrian Golden, females, site: forestomach, lesion: papilloma, dosed 50 weeks, study length 100 weeks) negative | TD50 (hamster, strain Syrian Golden, females, site: forestomach, lesion: papilloma, dosed 101 weeks, study length 101 weeks) 18900 mg/kg/day | carcinogen call (hamster, strain Syrian Golden, females, site: forestomach, lesion: papilloma, dosed 104 weeks, study length 104 weeks) negative | TD50 (hamster, strain Syrian Golden, females, site: ileum, lesion: adenocarcinoma, dosed 104 weeks, study length 104 weeks) 140000 mg/kg/day | TD50 (hamster, strain Syrian Golden, females, site: uterus, lesion: leiomyoma, dosed 101 weeks, study length 101 weeks) 39200 mg/kg/day | carcinogen call (hamster, strain Syrian Golden, males, site: adrenal gland, lesion: cortical adenoma, dosed 101 weeks, study length 101 weeks) negative | carcinogen call (hamster, strain Syrian Golden, males, site: adrenal gland, lesion: cortical adenoma, dosed 104 weeks, study length 104 weeks) negative | TD50 (hamster, strain Syrian Golden, males, site: forestomach, lesion: papilloma, dosed 50 weeks, study length 100 weeks) 1440 mg/kg/day | carcinogen call (hamster, strain Syrian Golden, males, site: forestomach, lesion: papilloma, dosed 101 weeks, study length 101 weeks) negative | TD50 (hamster, strain Syrian Golden, males, site: forestomach, lesion: papilloma, dosed 104 weeks, study length 104 weeks) 56700 mg/kg/day | carcinogen call (mouse, strain DDY, females, site: liver, lesion: one or several types, types not named, dosed 120 weeks, study length 120 weeks) negative | TD50 (mouse, strain DDY, females, site: lung, lesion: several types, types named in the paper, dosed 120 weeks, study length 120 weeks) 4240 mg/kg/day | TD50 (mouse, strain DDY, males, site: heart, lesion: spindle-cell sarcoma, dosed 115 weeks, study length 115 weeks) 73400 mg/kg/day | TD50 (mouse, strain DDY, males, site: liver, lesion: several types, types named in the paper, dosed 115 weeks, study length 115 weeks) 15100 mg/kg/day | TD50 (mouse, strain DDY, males, site: lung, lesion: several types, types named in the paper, dosed 115 weeks, study length 115 weeks) 5460 mg/kg/day | carcinogen call (rat, strain ACI, females, site: adrenal gland, lesion: cortical adenoma, dosed 77 weeks, study length 77 weeks) negative | TD50 (rat, strain ACI, females, site: adrenal gland, lesion: cortical adenoma, dosed 121 weeks, study length 121 weeks) 226000 mg/kg/day | carcinogen call (rat, strain ACI, females, site: pituitary gland, lesion: adenoma, dosed 77 weeks, study length 77 weeks) negative | TD50 (rat, strain ACI, females, site: pituitary gland, lesion: adenoma, dosed 121 weeks, study length 121 weeks) 461000 mg/kg/day | TD50 (rat, strain ACI, females, site: thigh, lesion: sarcoma, dosed 121 weeks, study length 121 weeks) 90400 mg/kg/day | TD50 (rat, strain ACI, males, site: adrenal gland, lesion: pheochromocytoma, dosed 77 weeks, study length 77 weeks) 7130 mg/kg/day | TD50 (rat, strain ACI, males, site: cecum, lesion: adenocarcinoma, dosed 121 weeks, study length 121 weeks) 35200 mg/kg/day | TD50 (rat, strain ACI, males, site: cecum, lesion: adenoma, dosed 77 weeks, study length 77 weeks) 7130 mg/kg/day | TD50 (rat, strain ACI, males, site: cecum, lesion: adenoma, dosed 121 weeks, study length 121 weeks) 72300 mg/kg/day | TD50 (rat, strain ACI, males, site: pancreas, lesion: exocrine adenoma, dosed 121 weeks, study length 121 weeks) 72300 mg/kg/day | TD50 (rat, strain ACI, males, site: testis, lesion: interstitial-cell tumor, dosed 77 weeks, study length 77 weeks) 2290 mg/kg/day | TD50 (rat, strain F344/DuCrj, females, site: all sites, lesion: lymphoma and leukemia, combined, dosed 104 weeks, study length 112 weeks) 7860 mg/kg/day | carcinogen call (rat, strain F344/DuCrj, females, site: liver, lesion: hyperplastic nodule, dosed 104 weeks, study length 112 weeks) negative | TD50 (rat, strain F344/DuCrj, females, site: uterus, lesion: endometrial stromal polyp, dosed 104 weeks, study length 112 weeks) 19300 mg/kg/day | TD50 (rat, strain F344/DuCrj, males, site: all sites, lesion: lymphoma and leukemia, combined, dosed 104 weeks, study length 112 weeks) 1160 mg/kg/day | TD50 (rat, strain F344/DuCrj, males, site: liver, lesion: hyperplastic nodule, dosed 104 weeks, study length 112 weeks) 66800 mg/kg/day | TD50 (rat, strain Fischer 344, females, site: adrenal gland, lesion: cortical adenoma, dosed 77 weeks, study length 77 weeks) 118 mg/kg/day | carcinogen call (rat, strain Fischer 344, females, site: any site (literature study), lesion: several types, types named in the paper, dosed 64 weeks, study length 64 weeks) negative | TD50 (rat, strain Fischer 344, females, site: tongue, lesion: squamous-cell carcinoma, dosed 103 weeks, study length 103 weeks) 36500 mg/kg/day | carcinogen call (rat, strain Fischer 344, males, site: any site (literature study), lesion: several types, types named in the paper, dosed 64 weeks, study length 64 weeks) negative | carcinogen call (rat, strain Fischer 344, males, site: any site (literature study), lesion: several types, types named in the paper, dosed 77 weeks, study length 77 weeks) negative
8990 mg/kg/day and 5250 mg/kg/day: TD50 (rat, strain Fischer 344, males, site: kidney, lesion: tubule adenoma + tubular-cell adenocarcinoma, dosed 103 weeks, study length 103 weeks)
active: TD50 (rat, strain Fischer 344, males, site: kidney, lesion: tubule adenoma, dosed 103 weeks, study length 103 weeks) 12500 mg/kg/day and 6030 mg/kg/day | TD50 (rat, strain Norwegian albino, females, site: ileum, lesion: several types, types named in the paper, dosed 58 weeks, study length 58 weeks) 5.12 mg/kg/day | TD50 (rat, strain Norwegian albino, females, site: urinary bladder, lesion: several types, types named in the paper, dosed 58 weeks, study length 58 weeks) 51.3 mg/kg/day | carcinogen call (rat, strain Norwegian albino, males, site: ileum, lesion: several types, types named in the paper, dosed 58 weeks, study length 58 weeks) positive | TD50 (rat, strain Norwegian albino, males, site: urinary bladder, lesion: transitional-cell carcinoma, dosed 58 weeks, study length 58 weeks) 21 mg/kg/day
15.4 mg/kg/day: TD50 (rat, strain Norwegian albino, females, site: ileum, lesion: adenocarcinoma, dosed 58 weeks, study length 58 weeks)
